The record followed here is ChEMBL document CHEMBL1137042, “Synthesis and cytotoxic activity of novel derivatives of 4'-demethylepipodophyllotoxin” (Bioorg Med Chem Lett, 2004).

A value given as a limit tells only on which side of the number the result lay.

In one assay the test system is HL-60. The experiment in a line: In vitro inhibitory concentration required against human leukemic HL-60 cell line was determined after 48 hrs of drug exposure using MTT method. The note with it: HL-60, 48 h. Type of assay: functional, cell-based.
Another assay deals with A549. Briefly: In vitro inhibitory concentration required against human lung carcinoma A-549 cell line was determined after 72 hrs of drug exposure using SRB method. Type of assay: functional, cell-based. To be noted: A549, 72 h.

Turning to `COc1cc([C@@H]2c3cc4c(cc3[C@@H](NC(Cc3ccccc3)C(=O)OCCCCn3cc(F)c(=O)[nH]c3=O)[C@H]3COC(=O)[C@H]23)OCO4)cc(OC)c1O` (stereo not given in full), the concentration for half-maximal inhibition (IC50) was determined as 420 nM with HL-60 and 300 nM in the assay with A549.

Take `COc1cc([C@@H]2c3cc4c(cc3[C@@H](NC(C(=O)OCCCCCn3cc(F)c(=O)[nH]c3=O)C(C)Cc3ccccc3)[C@H]3COC(=O)[C@H]23)OCO4)cc(OC)c1O` (stereo not given in full): the IC50 with HL-60 stood at 300 nM; in the assay with A549, 530 nM.

On to `O=c1[nH]cc(F)c(=O)[nH]1` [FLUOROURACIL], for which the results for the IC50 in the assay with HL-60 and with A549 were 65300 nM and 50500 nM, respectively.

Regarding `COc1cc([C@@H]2c3cc4c(cc3[C@@H](NC(C(=O)OCCCn3cc(F)c(=O)[nH]c3=O)C(C)Cc3ccccc3)[C@H]3COC(=O)[C@H]23)OCO4)cc(OC)c1O` (stereo not given in full), the results for the IC50 in the assay with HL-60 and in the assay on A549 were 240 nM and 180 nM, respectively.

Regarding `COc1cc([C@@H]2c3cc4c(cc3[C@@H](NC(CSC)C(=O)OCCCCn3cc(F)c(=O)[nH]c3=O)[C@H]3COC(=O)[C@H]23)OCO4)cc(OC)c1O` (stereo not given in full), the IC50 was 50 nM in the assay with HL-60 and 1870 nM in the assay on A549.

For the compound `COc1cc([C@@H]2c3cc4c(cc3[C@@H](NC(Cc3ccccc3)C(=O)OCCCn3cc(F)c(=O)[nH]c3=O)[C@H]3COC(=O)[C@H]23)OCO4)cc(OC)c1O` (stereo not given in full), the 50% inhibitory concentration (IC50) with HL-60 amounted to 310 nM; with A549, 480 nM.

For `COc1cc([C@@H]2c3cc4c(cc3[C@@H](NC(C(=O)OCCCCn3cc(F)c(=O)[nH]c3=O)C(C)Cc3ccccc3)[C@H]3COC(=O)[C@H]23)OCO4)cc(OC)c1O` (stereo not given in full), the results for the IC50 in the assay on HL-60 and in the assay on A549 were 530 nM and 740 nM, respectively.

For the compound `COc1cc([C@@H]2c3cc4c(cc3[C@@H](NC(Cc3ccccc3)C(=O)OCCCCCn3cc(F)c(=O)[nH]c3=O)[C@H]3COC(=O)[C@H]23)OCO4)cc(OC)c1O` (stereo not given in full), the IC50 is 40 nM in the assay on HL-60 and under 10 nM with A549.

Turning to `COc1cc([C@@H]2c3cc4c(cc3[C@@H](NC(CSC)C(=O)OCCCCCn3cc(F)c(=O)[nH]c3=O)[C@H]3COC(=O)[C@H]23)OCO4)cc(OC)c1O` (stereo not given in full), the figures for the IC50 in the assay with HL-60 and with A549 were 40 nM and 230 nM, respectively.

Turning to `COc1cc([C@@H]2c3cc4c(cc3[C@@H](NC(CSC)C(=O)OCCCn3cc(F)c(=O)[nH]c3=O)[C@H]3COC(=O)[C@H]23)OCO4)cc(OC)c1O` (stereo not given in full), the IC50 came to 990 nM in the assay with HL-60 and 290 nM in the assay on A549.
